Measurements: US20240315992A1, “AMINOXY ACID-BASED ANTIBACTERIAL COMPOUNDS AND METHODS THEREOF” (The University of Hong Kong, priority 2023, published 2024)
In brackets after ≈: the same amount, converted by molar mass.

Legend:
B. subtilis WT168 = test: MIC by CLSI broth micro-dilution, B. subtilis WT168; format: cell-based; conditions: Bacillus subtilis, read-out: Minimum inhibitory concentration
Procedure: Aminoxy acids were synthesized by the standard peptide coupling procedures. Minimum inhibitory concentration was determined using CLSI broth micro-dilution method in 96-wells microtitre plates. Minimum inhibitory concentration is defined as the lowest concentration of the compound that inhibits visible growth of the bacteria. All experiments were performed three times. 24 compounds including aminoxy acid monomers and dipeptides have been identified to show toxicity against multidrug resistant Staphylococcus aureus Mu3 and summarized in Table 1. The minimum inhibitory concentration of compound 8 and compound 35 on other gram-positive bacteria was also evaluated and summarized in Table 2. […] As shown in FIGS. 3A-3B there are no observable hemolysis for compound 8 and compound 35 towards human red blood cell.
Bacteria were streaked from the glycerol stock into BHI agar and were incubated overnight. Single colony was picked for the overnight culture in cation-adjusted Mueller Hinton broth (CAMH), LB or BHI. The overnight culture was sub-cultured and regrew to exponential phase for the experiment.
MIC was determined by CLSI broth micro-dilution method in 96-wells microtitre plates. […] Optical density was recorded by DTX 880 multimode detector (Beckman Coulter, California, US). […]

[1] = tested on: Staphylococcus aureus strain USA300-LAC; test: Non-lethal bacteremia model, bacteria loads in organs; format: in vivo, Balb/c mice; conditions: 10 mg/kg/day intraperitoneal, 4 days
Procedure: FIG. 9 are the bar graphs showing compound 8 and compound 35 reduce bacteria loads in different organs of the mice infected by Staphylococcus aureus. Grubb's test was performed to test for outliers. Statistical analysis was performed with two-sided paired t test. (*p<0.05).
Staphylococcus aureus strain USA300-LAC were cultured to the early exponential phase of growth, washed twice with sterile phosphate-buffered saline solution (PBS), and resuspended in PBS at 5×10^6 CFU/200 μL for non-lethal bacteremia model. The female Balb/c mice, 6-8 weeks, were infected intravenously (i.v.) through the tail vein with Staphylococcus aureus and randomized into three groups (N=14 for vehicle; N=12 for compound 8 and compound 35 respectively). One hour after infection, mice received intraperitoneal injections of compound 8 or compound 35 (10 mg/kg/day) or an injection of buffer (PBS with 2.5% DMSO and 2% Tween-80) as the control. The compound and injection buffer treatments were performed twice per day at 12-h intervals. The challenged mice were monitored for 4 days, at which point all the remaining mice were sacrificed. The CFU of S. aureus were determined in heart, liver, kidney and lung by plating in series dilution. Grubb's test was performed to test for outliers. Statistical analysis was performed with two-sided paired t test. (*p<0.05).

[2] = tested on: MRSA Mu3 cell membrane potential; test: Membrane potential monitored by DiSC3(5); format: cell-based, Staphylococcus aureus
Procedure: FIG. 11 is a line graph showing compound 8 can depolarize Staphylococcus aureus cell membrane under sub-inhibitory concentration and hyperpolarize Staphylococcus aureus cell membrane under inhibitory concentration. Membrane potential was monitored by DiSc3(5) over time (s). Extracellular buffer contained 10 mM HEPEs buffer, 5 mM glucose and 100 mM NaCl, pH 7.1. At t=100 s, 6 μL different concentration of compound 8 and 10 mM valinomycin (Vln) were added to 594 μL MRSA Mu3 pre-incubated with 0.4 μM DiSC3(5). The fluorescence signal was further monitored for 500 s. Data represented the mean±S.D. of technical triplicates.
Typically, an overnight culture of MRSA Mu3 was sub-cultured 1:100 in fresh CAMH and regrown to exponential phase. The bacteria were harvested (3,000×g, 5 min), washed, and re-suspended in a solution with 10 mM HEPEs buffer, 5 mM glucose and 100 mM KCl or 100 mM NaCl (pH 7.2). The bacteria were diluted to OD595 0.3 with the same buffer. […] Bacteria were incubated in darkness for 20 minutes or until fluorescence signal become stable. Fluorescence signal was recorded using Hitachi F-4500 Florescence Spectrometer. In a 1 mL cuvette, 594 μL bacteria incubated with DiSC3(5) were added and the fluorescence was monitored for 100 s. […] The fluorescence was monitored for further 500 s. […]

Row | Structure (SMILES) | MIC (B. subtilis WT168) [µM] | bacteria load in heart [1] | bacteria load in lung [1] | cell membrane potential under inhibitory concentration ([2]; inhibitory concentration) | cell membrane potential under sub-inhibitory concentration ([2]; sub-inhibitory concentration)
1 | CC(C)C[C@H](ONC(=O)[C@@H](COCc1ccccc1)ONC(=O)c1cc(C(F)(F)F)cc(C(F)(F)F)c1)C(=O)Nc1ccc2c(c1)OC(F)(F)O2 [Compound 35] | 1.56 (≈ 1.15 µg/mL) | – | – | – | –
2 | CC(C)C[C@H](ONC(=O)[C@@H](COCc1ccccc1)ONC(=O)c1cc(C(F)(F)F)cc(C(F)(F)F)c1)C(=O)Nc1ccccc1 [Compound 8] | 3.13 (≈ 2.05 µg/mL) | can reduce the bacteria load | can reduce the bacteria load | hyperpolarize | depolarize
